Measurements as given in ChEMBL document CHEMBL1201862, “PubChem BioAssay data set” (2004).
Active and inactive are the calls of the source.

Columns and labels:
[1] = system: HEK293; assay: inhibitors of LMP1-driven NF-kB reporter, dose response, cell-based, HEK293, luciferase, cherry-pick (AID 588343); format: functional; settings: Homo sapiens
[2] = target: Induced myeloid leukemia cell differentiation protein Mcl-1 (Homo sapiens, UniProt Q07820); format: functional
[3] = target: T1, Bcl-2-like protein 10 (Homo sapiens, UniProt Q9HD36); assay: displacers of TR3 peptide from Bcl-B, primary screen, selectivity assay for Bfl-1 inhibitor project, biochemical, fluorescence polarization, FITC-TR3 peptide (AID 748);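 also: fluorescence polarization from a fluorescein-labelled TR3 peptide binding purified Bcl-B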
T1 sequence (Q9HD36 whole entry): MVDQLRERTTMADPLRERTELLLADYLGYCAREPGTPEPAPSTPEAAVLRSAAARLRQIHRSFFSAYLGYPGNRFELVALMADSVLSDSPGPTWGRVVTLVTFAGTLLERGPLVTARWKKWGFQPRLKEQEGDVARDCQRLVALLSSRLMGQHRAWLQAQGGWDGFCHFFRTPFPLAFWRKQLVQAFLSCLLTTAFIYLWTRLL

[4] = target: Dual specificity tyrosine-phosphorylation-regulated kinase 1A (Rattus norvegicus, UniProt Q63470); format: biochemical, Homo sapiens
[5] = target: T2, RNA-binding protein pos-1 (Caenorhabditis elegans, UniProt G5EF15); assay: inhibitors of POS-1/mex-3 RNA binding, dose response, biochemical, fluorescence polarization (AID 1964);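 also: purified POS-1 fused to maltose binding protein made in E. coli; potency of compounds blocking POS-1 binding to fluorescent RNA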
T2 sequence (G5EF15 whole entry): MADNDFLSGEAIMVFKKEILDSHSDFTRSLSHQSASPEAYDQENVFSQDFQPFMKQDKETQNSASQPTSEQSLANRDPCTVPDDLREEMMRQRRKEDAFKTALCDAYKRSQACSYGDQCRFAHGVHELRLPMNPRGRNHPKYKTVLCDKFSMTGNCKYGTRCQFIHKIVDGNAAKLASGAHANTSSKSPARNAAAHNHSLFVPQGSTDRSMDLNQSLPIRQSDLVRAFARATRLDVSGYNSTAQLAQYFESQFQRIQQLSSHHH

[6] = target: ATP-dependent molecular chaperone HSP82 (Candida albicans (strain WO-1) (Yeast), UniProt C4YTQ8); assay: loss of DOC-induced GRE-beta-galactosidase reporter signal, dose response, Hsp90 inhibitor project, S. cerevisiae, luminescence (AID 2400); format: functional, cell-based;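 also: beta-galactosidase luminescence from glucocorticoid response element reporter as proxy for Hsp90 function; inhibitor potency where signal loss means Hsp90 inhibition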
[7] = target: Megakaryocyte-associated tyrosine-protein kinase (Homo sapiens, UniProt P42679); format: functional;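 also: affinity measured as one member of a kinase panel (Navigating the Kinome) against MATK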
[8] = target: Mitogen-activated protein kinase 9 (Homo sapiens, UniProt P45984); format: functional;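 also: value from a kinome panel profiling assay, MAPK9 panel entry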
[9] = target: Serine/threonine-protein kinase DCLK1 (Homo sapiens, UniProt O15075); format: functional;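 also: affinity for DCLK1 (listed as DCAMKL1) measured as one member of a kinome-wide kinase profiling panel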
[10] = target: Homeodomain-interacting protein kinase 4 (Homo sapiens, UniProt Q8NE63); format: functional
[11] = target: cGMP-dependent protein kinase 1 (Homo sapiens, UniProt Q13976); format: functional;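 also: value from a kinome panel screen with PRKG1 as the panel member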
[12] = target: Serine/threonine-protein kinase Chk2 (Homo sapiens, UniProt O96017); format: functional;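 also: CHEK2 entry within a kinome-wide screening panel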
[13] = target: Tyrosine-protein kinase Fer (Homo sapiens, UniProt P16591); format: functional;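 also: FER tested as one member of a kinome panel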
[14] = target: Tyrosine-protein kinase receptor TYRO3 (Homo sapiens, UniProt Q06418); format: functional;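 also: TYRO3 value obtained as one member of a kinome-wide profiling panel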
[15] = target: Tyrosine-protein kinase FRK (Homo sapiens, UniProt P42685); format: functional;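 also: FRK tested as one member of a kinome panel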
[16] = target: Maternal embryonic leucine zipper kinase (Homo sapiens, UniProt Q14680); format: functional
[17] = target: Serine/threonine-protein kinase pim-3 (Homo sapiens, UniProt Q86V86); format: functional;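 also: value obtained as one member of a broad kinase panel profiling effort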
[18] = target: Serine/threonine-protein kinase Chk1 (Homo sapiens, UniProt O14757); format: functional;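 also: measured as one member of a kinome-wide kinase profiling panel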
[19] = target: Protein kinase C zeta type (Homo sapiens, UniProt Q05513); format: functional;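 also: measured as one member of a broad kinase profiling panel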
[20] = target: Interleukin-1 receptor-associated kinase 1 (Homo sapiens, UniProt P51617); format: functional;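 also: IRAK1 tested as one member of a kinome panel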
[21] = target: Ribosomal protein S6 kinase alpha-5 (Homo sapiens, UniProt O75582); format: functional
[22] = target: Serine/threonine-protein kinase D2 (Homo sapiens, UniProt Q9BZL6); format: functional;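 also: measured against PRKD2 as one member of a kinome-wide kinase profiling panel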
[23] = target: Non-receptor tyrosine-protein kinase TYK2 (Homo sapiens, UniProt P29597); format: functional
[24] = target: Dual specificity protein kinase CLK4 (Homo sapiens, UniProt Q9HAZ1); format: functional
[25] = target: Mitogen-activated protein kinase 12 (Homo sapiens, UniProt P53778); format: functional;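 also: measured as one member of a kinome-wide kinase profiling panel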
[26] = target: Aurora kinase A (Homo sapiens, UniProt O14965); format: functional;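 also: value from the Navigating the Kinome kinase panel profiling, panel entry STK6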
[27] = target: Death-associated protein kinase 3 (Homo sapiens, UniProt O43293); format: functional;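 also: measured as one member of a kinome-wide profiling panel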
[28] = target: T3, Rac GTPase-activating protein 1 (Homo sapiens, UniProt Q9H0H5); assay: MgcRacGAP GTPase-activating activity inhibitors, confirmation, biochemical, ADP Hunter fluorescence, primary and confirmatory (AID 624330); format: functional
T3 sequence (Q9H0H5 whole entry): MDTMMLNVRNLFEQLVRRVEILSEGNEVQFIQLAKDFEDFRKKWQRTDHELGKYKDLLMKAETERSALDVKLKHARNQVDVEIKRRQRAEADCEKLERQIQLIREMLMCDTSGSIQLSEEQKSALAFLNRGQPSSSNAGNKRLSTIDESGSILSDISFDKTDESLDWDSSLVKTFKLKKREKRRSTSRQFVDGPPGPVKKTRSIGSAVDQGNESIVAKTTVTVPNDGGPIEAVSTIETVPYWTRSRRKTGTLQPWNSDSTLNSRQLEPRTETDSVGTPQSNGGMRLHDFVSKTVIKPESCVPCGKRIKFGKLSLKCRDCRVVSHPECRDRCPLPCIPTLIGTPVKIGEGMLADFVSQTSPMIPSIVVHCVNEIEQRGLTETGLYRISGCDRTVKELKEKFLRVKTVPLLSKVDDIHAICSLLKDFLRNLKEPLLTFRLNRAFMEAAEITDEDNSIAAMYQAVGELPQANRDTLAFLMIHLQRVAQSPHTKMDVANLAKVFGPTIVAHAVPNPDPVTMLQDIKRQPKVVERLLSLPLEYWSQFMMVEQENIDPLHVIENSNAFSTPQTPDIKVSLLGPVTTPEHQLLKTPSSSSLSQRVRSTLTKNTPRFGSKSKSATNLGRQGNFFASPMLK

[29] = THP-1 cell cytotoxicity, dose response, cytotoxicity control for non-replicating M. tuberculosis project (AID 489025); format: functional

Sequence of Interleukin-1 receptor-associated kinase 1 (P51617 whole entry): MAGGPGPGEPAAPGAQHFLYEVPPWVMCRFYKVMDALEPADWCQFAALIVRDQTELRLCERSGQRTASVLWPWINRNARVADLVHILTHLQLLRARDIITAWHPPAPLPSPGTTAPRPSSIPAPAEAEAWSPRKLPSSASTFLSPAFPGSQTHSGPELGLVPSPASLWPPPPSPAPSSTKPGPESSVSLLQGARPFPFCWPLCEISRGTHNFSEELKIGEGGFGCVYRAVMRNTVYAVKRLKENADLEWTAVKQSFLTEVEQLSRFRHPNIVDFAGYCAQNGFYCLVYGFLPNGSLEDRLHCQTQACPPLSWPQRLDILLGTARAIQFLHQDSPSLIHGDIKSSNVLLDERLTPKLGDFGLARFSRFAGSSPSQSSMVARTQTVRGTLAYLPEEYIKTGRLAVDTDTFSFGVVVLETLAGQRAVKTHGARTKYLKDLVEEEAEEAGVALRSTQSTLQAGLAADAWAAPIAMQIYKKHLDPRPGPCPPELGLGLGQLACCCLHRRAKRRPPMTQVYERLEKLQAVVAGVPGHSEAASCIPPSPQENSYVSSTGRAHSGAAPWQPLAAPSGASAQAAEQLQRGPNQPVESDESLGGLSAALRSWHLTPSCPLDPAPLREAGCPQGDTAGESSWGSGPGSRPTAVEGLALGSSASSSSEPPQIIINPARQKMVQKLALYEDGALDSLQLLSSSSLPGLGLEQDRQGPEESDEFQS
Sequence of Dual specificity protein kinase CLK4 (Q9HAZ1 whole entry): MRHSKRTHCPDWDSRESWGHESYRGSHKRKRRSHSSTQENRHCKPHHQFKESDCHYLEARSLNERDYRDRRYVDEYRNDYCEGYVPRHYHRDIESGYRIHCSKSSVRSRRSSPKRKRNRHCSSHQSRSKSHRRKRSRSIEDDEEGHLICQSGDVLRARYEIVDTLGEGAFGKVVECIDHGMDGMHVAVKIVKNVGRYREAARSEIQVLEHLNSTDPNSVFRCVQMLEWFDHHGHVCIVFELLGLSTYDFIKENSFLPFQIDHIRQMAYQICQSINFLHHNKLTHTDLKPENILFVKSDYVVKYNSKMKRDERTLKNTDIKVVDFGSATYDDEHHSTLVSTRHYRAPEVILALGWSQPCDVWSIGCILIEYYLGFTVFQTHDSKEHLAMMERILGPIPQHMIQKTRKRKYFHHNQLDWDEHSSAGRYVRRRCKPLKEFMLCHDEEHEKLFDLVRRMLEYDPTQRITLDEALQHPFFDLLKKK
Sequence of cGMP-dependent protein kinase 1 (Q13976 whole entry): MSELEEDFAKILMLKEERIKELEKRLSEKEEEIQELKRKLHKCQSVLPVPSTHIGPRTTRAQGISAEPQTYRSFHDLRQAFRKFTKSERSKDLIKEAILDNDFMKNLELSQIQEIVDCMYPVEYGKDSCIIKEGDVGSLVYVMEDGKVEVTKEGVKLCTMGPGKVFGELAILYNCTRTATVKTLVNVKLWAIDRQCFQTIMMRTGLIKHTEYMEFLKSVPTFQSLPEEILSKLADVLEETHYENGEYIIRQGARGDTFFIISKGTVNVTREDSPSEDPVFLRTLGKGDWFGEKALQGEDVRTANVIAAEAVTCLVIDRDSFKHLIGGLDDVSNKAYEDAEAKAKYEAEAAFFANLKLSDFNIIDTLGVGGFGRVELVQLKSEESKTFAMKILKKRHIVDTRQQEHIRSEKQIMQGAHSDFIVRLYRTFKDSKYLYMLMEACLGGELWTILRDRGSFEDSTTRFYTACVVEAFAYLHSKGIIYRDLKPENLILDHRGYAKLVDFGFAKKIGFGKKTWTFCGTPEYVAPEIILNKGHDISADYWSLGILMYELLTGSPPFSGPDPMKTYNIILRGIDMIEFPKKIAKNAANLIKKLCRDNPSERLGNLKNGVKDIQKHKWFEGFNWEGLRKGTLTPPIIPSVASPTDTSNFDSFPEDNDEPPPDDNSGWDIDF
Sequence of Tyrosine-protein kinase FRK (P42685 whole entry): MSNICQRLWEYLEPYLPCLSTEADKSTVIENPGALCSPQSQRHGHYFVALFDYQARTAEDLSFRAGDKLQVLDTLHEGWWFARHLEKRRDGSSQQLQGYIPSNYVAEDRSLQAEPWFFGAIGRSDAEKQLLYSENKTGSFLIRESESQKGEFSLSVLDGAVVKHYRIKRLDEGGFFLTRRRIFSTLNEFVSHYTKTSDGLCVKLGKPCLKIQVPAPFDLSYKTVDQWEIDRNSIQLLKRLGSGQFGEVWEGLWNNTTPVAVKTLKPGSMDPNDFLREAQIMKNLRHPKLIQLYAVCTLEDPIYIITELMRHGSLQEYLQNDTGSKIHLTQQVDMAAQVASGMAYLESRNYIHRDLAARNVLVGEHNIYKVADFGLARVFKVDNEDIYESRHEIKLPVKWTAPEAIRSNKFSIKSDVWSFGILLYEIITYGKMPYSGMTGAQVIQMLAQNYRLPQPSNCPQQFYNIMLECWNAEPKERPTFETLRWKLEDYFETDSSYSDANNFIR
Sequence of Aurora kinase A (O14965 whole entry): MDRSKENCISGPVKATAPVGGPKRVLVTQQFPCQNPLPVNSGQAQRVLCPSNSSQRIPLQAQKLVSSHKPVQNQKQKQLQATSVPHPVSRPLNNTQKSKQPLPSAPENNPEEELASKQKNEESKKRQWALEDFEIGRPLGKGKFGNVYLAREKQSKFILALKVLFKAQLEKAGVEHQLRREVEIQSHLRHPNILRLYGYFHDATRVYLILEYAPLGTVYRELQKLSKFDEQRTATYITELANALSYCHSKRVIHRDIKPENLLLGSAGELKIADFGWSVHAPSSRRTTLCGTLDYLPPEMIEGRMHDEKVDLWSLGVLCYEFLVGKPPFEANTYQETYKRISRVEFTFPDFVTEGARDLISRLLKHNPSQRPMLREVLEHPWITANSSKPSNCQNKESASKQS
Sequence of Megakaryocyte-associated tyrosine-protein kinase (P42679 whole entry): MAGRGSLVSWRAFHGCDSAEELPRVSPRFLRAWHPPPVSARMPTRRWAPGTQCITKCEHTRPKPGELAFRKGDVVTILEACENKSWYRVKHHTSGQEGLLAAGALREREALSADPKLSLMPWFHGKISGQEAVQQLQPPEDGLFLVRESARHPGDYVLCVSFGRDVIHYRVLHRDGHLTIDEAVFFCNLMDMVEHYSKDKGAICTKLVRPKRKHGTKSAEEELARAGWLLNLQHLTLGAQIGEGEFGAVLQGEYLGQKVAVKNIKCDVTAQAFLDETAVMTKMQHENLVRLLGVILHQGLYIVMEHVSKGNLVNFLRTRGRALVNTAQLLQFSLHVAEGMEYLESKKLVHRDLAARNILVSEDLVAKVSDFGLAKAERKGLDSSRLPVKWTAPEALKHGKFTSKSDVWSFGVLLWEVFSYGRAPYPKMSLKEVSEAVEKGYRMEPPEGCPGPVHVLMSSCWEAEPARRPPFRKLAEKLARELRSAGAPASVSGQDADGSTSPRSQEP
Sequence of Serine/threonine-protein kinase DCLK1 (O15075 whole entry): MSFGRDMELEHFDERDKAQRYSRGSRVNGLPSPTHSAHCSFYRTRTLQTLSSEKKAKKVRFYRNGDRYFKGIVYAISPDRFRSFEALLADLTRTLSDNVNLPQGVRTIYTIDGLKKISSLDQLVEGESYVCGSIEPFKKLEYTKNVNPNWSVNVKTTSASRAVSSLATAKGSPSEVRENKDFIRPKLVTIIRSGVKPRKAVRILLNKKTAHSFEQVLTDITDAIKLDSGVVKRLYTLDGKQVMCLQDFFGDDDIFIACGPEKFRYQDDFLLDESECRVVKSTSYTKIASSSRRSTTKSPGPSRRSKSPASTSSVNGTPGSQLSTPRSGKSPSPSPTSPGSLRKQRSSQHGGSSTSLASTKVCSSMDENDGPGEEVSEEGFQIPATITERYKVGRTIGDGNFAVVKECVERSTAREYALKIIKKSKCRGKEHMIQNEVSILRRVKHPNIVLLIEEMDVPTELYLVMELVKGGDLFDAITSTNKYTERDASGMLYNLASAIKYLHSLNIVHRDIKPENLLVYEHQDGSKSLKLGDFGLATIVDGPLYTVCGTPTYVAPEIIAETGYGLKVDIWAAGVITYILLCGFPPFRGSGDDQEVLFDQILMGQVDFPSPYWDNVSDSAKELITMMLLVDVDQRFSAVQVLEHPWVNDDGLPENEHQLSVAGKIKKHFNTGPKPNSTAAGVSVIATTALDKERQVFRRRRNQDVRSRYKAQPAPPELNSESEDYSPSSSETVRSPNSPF
Sequence of Maternal embryonic leucine zipper kinase (Q14680 whole entry): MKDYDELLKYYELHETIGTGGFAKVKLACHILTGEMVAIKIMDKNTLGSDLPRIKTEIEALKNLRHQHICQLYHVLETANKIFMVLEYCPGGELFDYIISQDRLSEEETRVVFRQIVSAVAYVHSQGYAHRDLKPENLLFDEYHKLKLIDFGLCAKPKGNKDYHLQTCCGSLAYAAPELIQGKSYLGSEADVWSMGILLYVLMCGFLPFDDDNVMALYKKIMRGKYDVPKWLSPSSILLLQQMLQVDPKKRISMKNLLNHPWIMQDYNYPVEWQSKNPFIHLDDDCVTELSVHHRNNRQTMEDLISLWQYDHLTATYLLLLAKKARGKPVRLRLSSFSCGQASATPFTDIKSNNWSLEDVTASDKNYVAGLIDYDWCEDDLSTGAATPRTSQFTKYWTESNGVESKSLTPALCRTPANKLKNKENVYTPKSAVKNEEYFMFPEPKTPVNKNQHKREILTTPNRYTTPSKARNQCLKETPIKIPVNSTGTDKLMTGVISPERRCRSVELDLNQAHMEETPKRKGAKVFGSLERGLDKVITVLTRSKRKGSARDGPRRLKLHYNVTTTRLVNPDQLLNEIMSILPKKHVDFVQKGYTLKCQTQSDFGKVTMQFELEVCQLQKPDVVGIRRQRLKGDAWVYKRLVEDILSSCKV

CCC(=O)NC(c1ccc(C)cc1)c1ccc2cccnc2c1O (centres undefined)
AC50 [1]: 4510 nM (active)

N/C(=N\N=C/c1ccc(-c2ccc(O)c(C(=O)O)c2)o1)N[N+](=O)[O-]
IC50 [2]: 3860 nM (active) | IC50 [3]: 2820 nM (active) | AC50 [4]: 1130 nM (active) | EC50 [5]: 29900 nM (active)

CCCC(=O)NC(c1ccc(Cl)cc1)c1ccc2cccnc2c1O (centres undefined)
EC50 [6]: > 160000 nM (inactive)

Cc1cccc(NC(=O)Nc2ccc3c(c2)CCc2sc4ncnc(N)c4c2-3)c1
Ki [7]: > 2000 nM (inactive) | Ki [8]: > 3980 nM (inactive) | Ki [9]: > 10000 nM (inactive) | Ki [10]: 79.4 nM (active) | Ki [11]: > 2000 nM (inactive) | Ki [12]: 1260 nM (active) | Ki [13]: > 1580 nM (inactive) | Ki [14]: > 2000 nM (inactive) | Ki [15]: 200 nM (active) | Ki [16]: 794 nM (active) | Ki [17]: 5010 nM (active) | Ki [18]: > 7940 nM (inactive) | Ki [19]: > 7940 nM (inactive) | Ki [20]: > 7940 nM (inactive) | Ki [21]: > 2000 nM (inactive) | Ki [22]: > 10000 nM (inactive) | Ki [23]: > 2000 nM (inactive) | Ki [24]: 126 nM (active) | Ki [25]: > 6310 nM (inactive) | Ki [26]: 79.4 nM (active) | Ki [27]: > 1260 nM (inactive)

Cc1ccc(-n2sc3ccccc3c2=O)cc1
IC50 [28]: 87400 nM (active) | CC50 [29]: 18600 nM (active)
